The subject of data set [1] is idiopathic pulmonary fibrosis. Also noted: method as in PMID 40387033. Particulars: patients with IPF, phase 3 clinical trial; cited from earlier work.
Data set [2] in a line: Non-GLP single dose PK, oral gavage. It is filed as in vivo, CD-1 mice. The settings on record: mouse plasma, single dose 30 mg/kg oral gavage, n=3, mean ± SD. The protocol:
A non-GLP comparative, single dose PK analysis of MDI-2268 versus MDI-2517 was performed by the University of Michigan Pharmacokinetics Core in CD-1 mice. Briefly, MDI-2268 or MDI-2517 were suspended in 0.5% methylcellulose in water and given orally by gavage at 30 mg/kg (10mL/kg) to 3 mice each. Blood was collected by using heparinized calibrated pipettes at 0.5h, 2h, 4h, and 7h and centrifuged immediately at 15,000g for 10 min. The plasma was collected, which was frozen at −80°C for later LC-MS analysis.

Data set [3] concerns the target recombinant active human PAI-1 (Homo sapiens, UniProt P05121). As to the kind of experiment: PAI-1 inhibitory activity against uPA (fluorogenic uPA substrate). It is filed as biochemical. The settings on record: for IC50: read-out: IC50 for inhibiting the activity of PAI-1 against uPA.
Description: At each drug concentration, parallel control reactions without PAI-1 were assembled. Residual enzymatic activity was determined by addition of an equal volume of 100 μM Z-Gly-Gly-Arg-AMC (Calbiochem) fluorogenic uPA substrate, and the rate of AMC release monitored at 23°C (excitation 370 nm and emission 440 nm). The percent change in PAI-1 activity was determined according to Eq. 1: [(Ei – Pi) / Ei] / [(E0 - P0) / E0], where Ei is the enzyme activity at drug concentration i; Pi is the enzyme activity in the presence of PAI-1 at drug concentration i; E0 is the enzyme activity in the absence of drug; and P0 is the enzyme activity in the presence of PAI-1 but in the absence of drug. Data were then plotted as the residual PAI-1 activity as a percentage of the control PAI-1 activity vs. compound concentration and from these curves the IC50 of each compound was calculated.
The subject of data set [4] is lung fibrosis induced by targeted type II alveolar epithelial cell injury. As to the kind of experiment: Targeted AEC2 injury model (diphtheria toxin in DTR mice; hydroxyproline, weight, histology). It is filed as in vivo, DTR-expressing mice (C57BL/6 background). Particulars: 60 mg/kg twice daily.
Data set [5] has as its system bleomycin-induced lung fibrosis. As to the kind of experiment: Single-dose bleomycin lung injury model (hydroxyproline, weight, histology). It is filed as in vivo, C57BL/6 mice. Here is the method:
Weight and age matched mice were anesthetized with isoflurane and received an oropharyngeal instillation of bleomycin (2.5 u/kg in 50 μL of sterile PBS) (Sigma Pharmaceuticals). Control mice received 50 μl of PBS alone. Mice were intermittently weighed through day 21. Hydroxyproline content of the lung was measured as previously described. The left lung was inflation-fixed at 25 cm H2O pressure with 10% neutral-buffered formalin, removed en bloc, further fixed in 10% neutral-buffered formalin overnight, and then paraffin embedded. Five-micron sections were stained using hematoxylin and eosin, and picrosirius red methods.

The test system of data set [6] is lung fibrosis induced by targeted type II alveolar epithelial cell injury. Particulars: model of targeted AEC2 injury; previously shown by the authors; cited from earlier work.
Data set [7] has as its system bleomycin-induced lung fibrosis. Also noted: method as in PMID 26859294. The settings on record: mice following bleomycin injury; cited from earlier work.
The subject of data set [8] is TGFβ-expressing adenovirus-induced lung fibrosis. Also noted: method as in PMID 21852684. The settings on record: started 4 days after fibrosis initiation; cited from earlier work.

Consider 6 compounds from publication PMC12393591, “Targeting Plasminogen Activator Inhibitor-1 with a Novel Small Molecule Inhibitor Attenuates Lung Fibrosis” (Research Square, 2025).

Like-named read-outs stand apart in the source and are kept apart here.

Chain of recombinant active human PAI-1 (P05121 24-402): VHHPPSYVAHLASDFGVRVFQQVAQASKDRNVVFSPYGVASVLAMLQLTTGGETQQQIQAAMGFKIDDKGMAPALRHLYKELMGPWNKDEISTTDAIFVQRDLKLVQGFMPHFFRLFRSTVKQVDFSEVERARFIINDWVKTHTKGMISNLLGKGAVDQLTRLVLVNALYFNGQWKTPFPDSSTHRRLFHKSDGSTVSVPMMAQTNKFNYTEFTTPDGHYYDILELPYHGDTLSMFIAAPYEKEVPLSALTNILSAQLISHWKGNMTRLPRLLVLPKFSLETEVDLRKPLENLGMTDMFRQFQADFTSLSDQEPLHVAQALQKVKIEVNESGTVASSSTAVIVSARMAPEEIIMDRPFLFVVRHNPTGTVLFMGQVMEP

Take `[O-][S+]1CCc2nc(N3CCC(c4ncc(Cl)cn4)CC3)nc(NC3(CO)CCC3)c21` (stereo not shown) [BI 1015550]: the “rate of lung function decline” value in data set [1] was “reduced the rate of lung function decline”.

The compound `NNC(=O)C(=O)NCc1cccc(OC(F)(F)F)c1` [MDI-2268] had an AUC0-7h obs in data set [2] of 7405 ± 1302 ng·h/mL. For the same compound, the figures for the IC50 in data set [3] (buffer containing 10% human PAI-1-depleted plasma), in data set [3] (buffer with 50 nM purified human vitronectin) and in data set [3] (in buffer alone) were 67 µM, 75 µM and 140 µM, respectively. Further, the “fold more effective than Tiplaxtinin at inhibiting PAI-1” value in data set [3] (in the presence of VTN) was “greater than 7 fold”.

`COC(=O)c1ccc2c(c1)NC(=O)/C2=C(\Nc1ccc(N(C)C(=O)CN2CCN(C)CC2)cc1)c1ccccc1` [Nintedanib]: in data set [4] (10 days from day 11), the “lung hydroxyproline content day 21” value is given as “statistically significantly reduced” and the “weight loss vs vehicle-treated injured group” value is “mitigated the severity of the weight loss”. For the same compound, the “histopathologic changes (alveolar wall thickening, picrosirius red staining)” value in data set [4] (10 days from day 11, day 21) is on record as “significantly attenuated”. Besides, the “body weight vs vehicle” value in data set [5] (60 mg/kg twice daily from day 11) is “recovery of body weight”. Also, the “lung collagen content (hydroxyproline) day 21” value in data set [5] (60 mg/kg twice daily, 10 days from day 11) is reported as “statistically significantly attenuated”. Also, in data set [5] (60 mg/kg twice daily, 10 days from day 11, day 21), the “areas of lung consolidation, picrosirius red histopathology” value is given as “significantly attenuated”. Also, in data set [6], the “severity of pulmonary scarring” value is “attenuate the severity of pulmonary scarring”.

`CC(C)(C)c1ccc2oc(-c3ccc4cc(OCCCCCC(C(=O)[O-])C(=O)[O-])ccc4c3)nc2c1.[Na+].[Na+]` [SK-216]: the lung fibrosis result in data set [7] is reported as “modestly attenuate lung fibrosis”.

Consider `O=C(COCC(=O)N1CCN(C(c2ccccc2)c2ccccc2)CC1)Nc1ccc(Cl)cc1C(=O)O` [TM5275], for which the lung collagen accumulation result in data set [8] is listed as “significantly decrease lung collagen accumulation”.

Regarding `Cc1ccc(=O)n(-c2ccccc2)c1` [pirfenidone], in data set [6], the “severity of pulmonary scarring” value is listed as “attenuate the severity of pulmonary scarring”.
